Starred links: 1 amine or outer side, 2 acyl side, 3 side chain; linkers in the order of their positions; H or OH if unused. Non-standard residues stand in square brackets, D forms with d. Residues, ends and D or L forms follow the SMILES beside them. Groups on a side chain read outwards from the residue. *: point of attachment. C20 diacid = O=C(O)CCCCCCCCCCCCCCCCCCC(=O)*; γGlu = O=C(O)[C@H](CCC(=O)[*:2])N[*:1]; AEEA = NCCOCCOCC(=O)O; Aib = CC(C)(N)C(=O)O
Experiments:
[1] = molecular target: human GLP-1 receptor (GLP-1R) (Homo sapiens, UniProt P43220); assay: Activity assay at human GLP-1 receptor, cAMP induction (AlphaScreen), Example 3
Chain of human GLP-1 receptor (GLP-1R) (P43220 24-463): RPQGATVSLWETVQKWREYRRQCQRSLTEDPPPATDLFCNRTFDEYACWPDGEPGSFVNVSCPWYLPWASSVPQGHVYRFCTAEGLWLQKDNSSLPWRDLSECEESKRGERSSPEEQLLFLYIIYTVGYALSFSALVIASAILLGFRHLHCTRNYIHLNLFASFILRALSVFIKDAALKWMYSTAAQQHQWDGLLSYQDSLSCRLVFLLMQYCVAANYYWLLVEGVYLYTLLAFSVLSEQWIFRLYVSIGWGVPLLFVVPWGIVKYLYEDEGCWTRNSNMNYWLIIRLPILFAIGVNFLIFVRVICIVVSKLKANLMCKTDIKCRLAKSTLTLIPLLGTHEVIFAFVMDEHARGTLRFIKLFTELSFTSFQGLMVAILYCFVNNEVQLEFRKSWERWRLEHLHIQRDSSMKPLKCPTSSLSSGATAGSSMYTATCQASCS

human GIP R = molecular target: T1, human GIP R (Homo sapiens, UniProt P48546); assay: cell-based
T1 sequence (P48546 22-466): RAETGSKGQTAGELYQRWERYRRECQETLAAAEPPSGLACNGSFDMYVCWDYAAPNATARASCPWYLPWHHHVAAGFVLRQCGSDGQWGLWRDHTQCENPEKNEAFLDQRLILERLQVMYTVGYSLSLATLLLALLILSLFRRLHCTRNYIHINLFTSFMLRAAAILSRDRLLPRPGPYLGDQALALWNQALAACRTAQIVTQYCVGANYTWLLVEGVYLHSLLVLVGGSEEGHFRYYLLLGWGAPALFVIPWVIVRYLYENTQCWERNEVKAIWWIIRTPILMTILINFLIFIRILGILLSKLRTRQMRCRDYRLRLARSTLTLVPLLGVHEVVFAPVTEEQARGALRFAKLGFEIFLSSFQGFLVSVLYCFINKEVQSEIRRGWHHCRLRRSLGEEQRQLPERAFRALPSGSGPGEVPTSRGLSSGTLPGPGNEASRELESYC

[2] = molecular target: T2, human GIP receptor (GIP R) (Homo sapiens, UniProt P48546); assay: Activity assay at human GIP receptor, cAMP induction (AlphaScreen), Example 3
T2 sequence (P48546 22-466): T1 sequence (P48546 22-466)

Row | Compound | EC50 [1] | EC50 (human GIP R) | EC50 [2]
1 | CC[C@H](C)[C@H](NC(=O)[C@H](CCCCN)NC(=O)[C@H](CC(=O)O)NC(=O)[C@H](CC(C)C)NC(=O)[C@H](CCC(=O)O)NC(=O)[C@@H](NC(=O)[C@H](CO)NC(=O)[C@H](Cc1ccc(O)cc1)NC(=O)[C@H](CC(=O)O)NC(=O)[C@H](CO)NC(=O)[C@@H](NC(=O)[C@H](Cc1ccccc1)NC(=O)[C@@H](NC(=O)CNC(=O)[C@H](CCC(=O)O)NC(=O)C(C)(C)NC(=O)[C@@H](N)Cc1ccc(O)cc1)[C@@H](C)O)[C@@H](C)CC)[C@@H](C)CC)C(=O)N[C@@H](C)C(=O)N[C@@H](C)C(=O)N[C@@H](CCC(N)=O)C(=O)N[C@@H](CC(=O)O)C(=O)N[C@@H](Cc1ccccc1)C(=O)N[C@H](C(=O)N[C@@H](CCC(=O)O)C(=O)N[C@@H](Cc1c[nH]c2ccccc12)C(=O)N[C@@H](CC(C)C)C(=O)N[C@@H](CC(C)C)C(=O)N[C@@H](C)C(=O)NCC(=O)N1CCC[C@H]1C(=O)N[C@@H](CO)C(=O)N[C@@H](CO)C(=O)NCC(=O)N[C@@H](C)C(=O)N1CCC[C@H]1C(=O)N1CCC[C@H]1C(=O)N1CCC[C@H]1C(=O)N[C@@H](CO)C(=O)N[C@@H](CCCCNC(=O)COCCOCCNC(=O)COCCOCCNC(=O)CC[C@H](NC(=O)CCCCCCCCCCCCCCCCCCC(=O)O)C(=O)O)C(N)=O)C(C)C [Compound 27] (H-Y[Aib]EGTFISDYSIELDKIAAQDFVEWLLAGPSSGAPPPSK([AEEA-AEEA-γGlu-C20 diacid])-NH2) | > 10 nM | 0.013 nM | 0.017 nM
2 | CC[C@H](C)[C@H](NC(=O)[C@H](CCCCN)NC(=O)[C@H](CC(=O)O)NC(=O)[C@H](CC(C)C)NC(=O)[C@H](CCC(=O)O)NC(=O)[C@@H](NC(=O)[C@H](CO)NC(=O)[C@H](Cc1ccc(O)cc1)NC(=O)[C@H](CC(=O)O)NC(=O)[C@H](CO)NC(=O)[C@@H](NC(=O)[C@H](Cc1ccccc1)NC(=O)[C@@H](NC(=O)CNC(=O)[C@H](CCC(=O)O)NC(=O)C(C)(C)NC(=O)[C@@H](N)Cc1ccc(O)cc1)[C@@H](C)O)[C@@H](C)CC)[C@@H](C)CC)C(=O)N[C@@H](C)C(=O)N[C@@H](C)C(=O)N[C@@H](CCC(N)=O)C(=O)N[C@@H](CC(=O)O)C(=O)N[C@@H](Cc1ccccc1)C(=O)N[C@H](C(=O)N[C@@H](CCC(=O)O)C(=O)N[C@@H](Cc1c[nH]c2ccccc12)C(=O)N[C@@H](CC(C)C)C(=O)N[C@@H](CC(C)C)C(=O)N[C@@H](C)C(=O)NCC(=O)N1CCC[C@H]1C(=O)N[C@@H](CO)C(=O)N[C@@H](CO)C(=O)NCC(=O)N[C@@H](C)C(=O)N1CCC[C@H]1C(=O)N1CCC[C@H]1C(=O)N1CCC[C@H]1C(=O)N[C@@H](CO)C(=O)N[C@@H](CCCCNC(=O)COCCOCCNC(=O)COCCOCCNC(=O)CC[C@H](NC(=O)CCCCCCCCCCCCCCCCCCC(=O)O)C(=O)O)C(N)=O)[C@@H](C)CC [Compound 25] (H-Y[Aib]EGTFISDYSIELDKIAAQDFIEWLLAGPSSGAPPPSK([AEEA-AEEA-γGlu-C20 diacid])-NH2) | > 100 nM | 0.032 nM | 0.008 nM

Reference: patent publication US12703729B2, “GIP agonist compounds and methods” (Zealand Pharma A/S, priority 2014, dated 2026)
